Assay results reported in patent US9556231B2, “Beta-hairpin peptidomimetics as CXC4 antagonists” (POLYPHOR AG, priority 2011, dated 2017).
Where two headings read alike, the source gives them in different places. Bridge positions count the residues as written; N and C are the ends. Square brackets hold non-standard residues; d marks the D form. Peptide text beside a SMILES is read from it. Lys(iPr) = CC(C)NCCCC[C@H](N)C(=O)O; Orn(iPr) = CC(C)NCCC[C@H](N)C(=O)O; Dab = NCC[C@H](N)C(=O)O

How the values were obtained:
[1] = Plasma stability, human plasma; assay type: in vitro ADME; conditions: 37° C., 1440 min, read-out: human pl. cpd left at 1440 min
Procedure: The stability of the peptides in human and mouse plasma was determined by applying the following method: 346.5 μL/deep well of freshly thawed human plasma (Basler Blutspende-dienst) and mouse plasma (Harlan Sera-Lab, UK), respectively, were spiked with 3.5 μL/well of compound dissolved in DMSO/H2O (90/10 [v/v], 1 mM, triplicate) and incubated at 37° C. At t=0, 15, 30, 60, 120, 240 and 1440 min aliquots of 50 μL were transferred to filtration plate wells containing 150 μL/well of 2% formic acid in acetonitrile. Following shaking for 2 min the occurred suspensions were filtrated by vacuum. 100 μL of each filtrate were transferred to a propylene microtiter plate and dried under N2. The residual solids were reconstituted by adding 100 μL/well of water/acetonitrile, 95/5 (v/v)+0.2% formic acid and analyzed by LC/MS as follows: Column: Waters, XBridge C18, mobile phases: (A) water+0.1% formic acid and (B) acetonitrile/water, 95/5 (v/v)+0.1% formic acid, gradient: 5%-100% (B) in 1.8 minutes, electrospray ionization, MRM detection (triple quadrupole). The peak areas were determined and triplicate values are averaged. The stability is expressed in percent of the initial value at t=0·(tx/t0×100). By using the TREND function of EXCEL (Microsoft Office 2003) T1/2 were determined.

[2] = Plasma protein binding; assay type: in vitro ADME; conditions: for fraction unbound: human, plasma; for fraction unbound at 1 h, 10 μM: human plasma
Procedure: 495 μL aliquots of human plasma (Basler Blutspendedienst) as well as 495 μL aliquots of PBS were placed in individual deepwells of a polypropylene plate (Greiner) and spiked each with 5 μL of 1 mM solutions of peptides in 90% DMSO. After shaking the plate for 2 min at 600 rpm 150 μL aliquots of the plasma/peptide mixtures were transferred in triplicates to the polypropylene filter plate (10 kDa, Millipore) whereas 150 μL aliquots of the PBS/peptide mixtures were transferred either to the individual wells of the filter plate (filtered controls) or directly into the individual wells of the receiving plate (Greiner) (non-filtered controls). The plate sandwich consisting of filter and receiving plate was incubated for 1 h at 37° C. and subsequently centrifuged at 3220 g for 2 h at 15° C. The filtrates in the receiving plate were analysed by LC/MS as follows: Column: Waters, XBridge C18, mobile phases: (A) water+0.1% formic acid and (B) acetonitrile/water, 95/5 (v/v)+0.1% formic acid, gradient: 5%-100% (B) in 1.8 min, electrospray ionization, MRM detection (triple quadrupole). The peak areas were determined and triplicate values are averaged. The binding is expressed in percent of the filtered and non-filtered controls by 100−(100×T1h/Tctr). Finally the average of these values is calculated.

[3] = tested on: HSC mobilization; assay: HSC mobilization in mouse, dose-response study (CFU-C assay); assay type: in vivo; conditions: C57Bl/6 mice, 5 mg/kg i.p., at time of maximum mobilization (Ex. 1 4 h, Ex. 2 2 h)
Procedure: For the compounds of Ex. 1 and Ex. 2 a HSC mobilization study was performed consisting of a time-response study to assess the time of maximum mobilization after dosing and a subsequent dose-response study.
Male C57Bl/6 mice (Janvier, France; n=5 per dose group for Ex. 1, n=3 per dose group for Ex. 2) received bolus i.p. injections of Ex. 1 and Ex. 2, respectively, at doses of 0.5, 1.5, 5 and 15 mg/kg (compound dissolved in 10 μL of water per g mouse weight containing 0.9% NaCl). Blood was collected as described above at the time of maximum mobilization for Ex. 1 (4 h) and Ex. 2 (2 h), respectively.
CFU-C counts were determined by culturing aliquots of lysed peripheral blood in standard semi-solid progenitor cell culture medium. In brief, a defined amount of blood was washed with PBS buffer (Gibco®) containing 0.5% bovine serum albumin, followed by red blood cell lysis in hypotonic NH4Cl buffer (Sigma) and a second wash step. The cell pellet was resuspended in DMEM (Gibco®) containing 10% FCS, suspended in 2 mL of commercially available, cytokine-replete methylcellulose medium for murine cells (Cell Systems, USA), and plated in duplicate into 35 mm cell culture dishes. CFU-C were scored after 7-8 days incubation under standard conditions (20% O2, saturated humidity, 5% CO2, 37° C.). Peripheral blood cellularity was analyzed using an automated blood count machine (Drew Scientific). […]

[4] = ultrafiltration 10 kDa, read-out: Plasma protein binding (converted)

Row | Compound | remaining at 24 h [1] [%] | fraction unbound ([2]; read-out: Fraction unbound, fu) | fraction unbound [2, 4] | CFU/mL ± SD [3] [CFU/mL] | remaining at 24 h, 10 μM [1] [%] | fraction unbound at 1 h, 10 μM ([2]; ultrafiltration 10 kDa)
1 | CC(C)NCCCC[C@@H]1NC(=O)[C@H](CCC(N)=O)NC(=O)[C@H](Cc2ccc(O)cc2)NC(=O)[C@@H]2CSSC[C@H](NC(=O)[C@H](Cc3ccc(O)cc3)NC(=O)[C@H](Cc3c[nH]cn3)NC(=O)[C@H](Cc3ccc(O)cc3)NC(=O)[C@@H]3CCCN3C(=O)[C@H]3CCCN3C1=O)C(=O)N[C@@H](CO)C(=O)N[C@@H](C)C(=O)N1CCC[C@@H]1C(=O)N[C@@H](CCCNC(C)C)C(=O)N[C@@H](CCCNC(=N)N)C(=O)N[C@@H](Cc1ccc(O)cc1)C(=O)N2 [Ex. 1, cyclo(-Tyr^1-His^2-Tyr^3-Cys^4-Ser^5-Ala^6-^DPro^7-Orn(iPr)^8-Arg^9-Tyr^10-Cys^11-Tyr^12-Gln^13-Lys(iPr)^14-^DPro^15-Pro^16-) disulfide bond between Cys^4 and Cys^11] (cyclo(YHYCSA[dP][Orn(iPr)]RYCYQ[Lys(iPr)][dP]P); disulfide 4-11) | 77 | 0.7 | 0.7 |  |  | 
2 | COc1ccc(C[C@@H]2NC(=O)[C@H](Cc3c[nH]cn3)NC(=O)[C@H](Cc3ccc(O)cc3)NC(=O)[C@@H]3CCCN3C(=O)[C@H]3CCCN3C(=O)[C@H](CCCCNC(C)C)NC(=O)[C@H](CCC(N)=O)NC(=O)[C@H](Cc3ccc(O)cc3)NC(=O)[C@@H]3CSSC[C@H](NC2=O)C(=O)N[C@@H](CO)C(=O)N[C@@H](C)C(=O)N2CCC[C@@H]2C(=O)N[C@@H](CCCNC(C)C)C(=O)N[C@@H](CCCNC(=N)N)C(=O)N[C@@H](Cc2ccc(O)cc2)C(=O)N3)cc1 [Ex. 2, cyclo(-Tyr^1-His^2-Tyr(Me)^3-Cys^4-Ser^5-Ala^6-^DPro^7-Orn(iPr)^8-Arg^9-Tyr^10-Cys^11-Tyr^12-Gln^13-Lys(iPr)^14-^DPro^15-Pro^16-), disulfide bond between Cys^4 and Cys^11] (cyclo(YHY(Me)CSA[dP][Orn(iPr)]RYCYQ[Lys(iPr)][dP]P); disulfide 4-11) | 100 | 0.52 | 0.52 | 2894 |  | 
3 | CC(C)NCCCC[C@@H]1NC(=O)[C@H](CCC(N)=O)NC(=O)[C@H](Cc2ccc(O)cc2)NC(=O)[C@@H]2CSSC[C@H](NC(=O)[C@H](C)NC(=O)[C@H](Cc3c[nH]cn3)NC(=O)[C@H](Cc3ccc(O)cc3)NC(=O)[C@@H]3CCCN3C(=O)[C@H]3CCCN3C1=O)C(=O)N[C@@H](CO)C(=O)N[C@@H](C)C(=O)N[C@H](Cc1ccc(O)cc1)C(=O)N[C@@H](CCN)C(=O)N[C@@H](CCCNC(=N)N)C(=O)N[C@@H](Cc1ccc(O)cc1)C(=O)N2 [Ex. 3, cyclo(-Tyr^1-His^2-Ala^3-Cys^4-Ser^5-Ala^6-^DTyr^7-Dab^8-Arg^9-Tyr^10-Cys^11-Tyr^12-Gln^13-Lys(iPr)^14-^DPro^15-Pro^16-), disulfide bond between Cys^4 and Cys^11] (cyclo(YHACSA[dY][Dab]RYCYQ[Lys(iPr)][dP]P); disulfide 4-11) |  |  |  |  | 100 | 0.52
4 | COc1ccc(C[C@H]2NC(=O)[C@H](C)NC(=O)[C@H](CO)NC(=O)[C@@H]3CSSC[C@H](NC(=O)[C@H](Cc4ccc(O)cc4)NC(=O)[C@H](CCCNC(=N)N)NC(=O)[C@H](CCCNC(C)C)NC2=O)C(=O)N[C@@H](Cc2ccc(O)cc2)C(=O)N[C@@H](CCC(N)=O)C(=O)N[C@@H](CCCCNC(C)C)C(=O)N2CCC[C@@H]2C(=O)N2CCC[C@H]2C(=O)N[C@@H](Cc2ccc(O)cc2)C(=O)N[C@@H](Cc2c[nH]cn2)C(=O)N[C@@H](C)C(=O)N3)cc1 [Ex. 4, cyclo(-Tyr^1-His^2-Ala^3-Cys^4-Ser^5-Ala^6-^DTyr(Me)^7-Orn(iPr)^8-Arg^9-Tyr^10-Cys^11-Tyr^12-Gln^13-Lys(iPr)^14-^DPro^15-Pro^16-), disulfide bond between Cys^4 and Cys^11] (cyclo(YHACSA[dY](Me)[Orn(iPr)]RYCYQ[Lys(iPr)][dP]P); disulfide 4-11) | 94 | 0.44 | 0.44 |  |  | 
5 | CC(C)NCCCC[C@@H]1NC(=O)[C@H](CCC(N)=O)NC(=O)[C@H](Cc2ccc(O)cc2)NC(=O)[C@@H]2CSSC[C@H](NC(=O)[C@H](Cc3ccc(O)cc3)NC(=O)[C@H](Cc3c[nH]cn3)NC(=O)[C@H](Cc3ccc(O)cc3)NC(=O)[C@@H]3CCCN3C(=O)[C@H]3CCCN3C1=O)C(=O)N[C@@H](CO)C(=O)N[C@@H](C)C(=O)N[C@H](Cc1ccc(O)cc1)C(=O)N[C@@H](CCCNC(C)C)C(=O)N[C@@H](CCCNC(=N)N)C(=O)N[C@@H](Cc1ccc(O)cc1)C(=O)N2 [Ex. 5, cyclo(-Tyr^1-His^2-Tyr^3-Cys^4-Ser^5-Ala^6-^DTyr^7-Orn(iPr)^8-Arg^9-Tyr^10-Cys^11-Tyr^12-Gln^13-Lys(iPr)^14-^DPro^15-Pro^16-), disulfide bond between Cys^4 and Cys^11] (cyclo(YHYCSA[dY][Orn(iPr)]RYCYQ[Lys(iPr)][dP]P); disulfide 4-11) |  |  |  |  | 92 | 0.46
6 | COc1ccc(C[C@@H]2NC(=O)[C@H](Cc3c[nH]cn3)NC(=O)[C@H](Cc3ccc(O)cc3)NC(=O)[C@@H]3CCCN3C(=O)[C@H]3CCCN3C(=O)[C@H](CCCCNC(C)C)NC(=O)[C@H](CCC(N)=O)NC(=O)[C@H](Cc3ccc(O)cc3)NC(=O)[C@@H]3CSSC[C@H](NC2=O)C(=O)N[C@@H](CO)C(=O)N[C@@H](C)C(=O)N[C@H](Cc2ccc(OC)cc2)C(=O)N[C@@H](CCCNC(C)C)C(=O)N[C@@H](CCCNC(=N)N)C(=O)N[C@@H](Cc2ccc(O)cc2)C(=O)N3)cc1 [Ex. 6, cyclo(-Tyr^1-His^2-Tyr(Me)^3-Cys^4-Ser^5-Ala^6-^DTyr(Me)^7-Orn(iPr)^8-Arg^9-Tyr^10-Cys^11-Tyr^12-Gln^13-Lys(iPr)^14-^DPro^15-Pro^16-), disulfide bond between Cys^4 and Cys^11] (cyclo(YHY(Me)CSA[dY](Me)[Orn(iPr)]RYCYQ[Lys(iPr)][dP]P); disulfide 4-11) |  |  |  |  | 83 | 0.37
